Numbered stars: 1 amine (or outer) side, 2 acyl side, 3 side chain; on linkers, the order of the positions; unused ones are H or OH. Bridge positions count the residues as written; N and C are the ends. Side chains are listed from the residue outwards. Peptide text beside a SMILES is read from it. * marks the point of attachment. C20 diacid = O=C(O)CCCCCCCCCCCCCCCCCCC(=O)*; γGlu = O=C(O)[C@H](CCC(=O)[*:2])N[*:1]; AEEA = NCCOCCOCC(=O)O
Biological target: T1, human amylin receptor (amylin 3(a) receptor: human calcitonin receptor + RAMP-3) (Homo sapiens, UniProt O60896+P30988)
T1 construct: expressed in transfected cells
T1 sequence (P30988 25-474): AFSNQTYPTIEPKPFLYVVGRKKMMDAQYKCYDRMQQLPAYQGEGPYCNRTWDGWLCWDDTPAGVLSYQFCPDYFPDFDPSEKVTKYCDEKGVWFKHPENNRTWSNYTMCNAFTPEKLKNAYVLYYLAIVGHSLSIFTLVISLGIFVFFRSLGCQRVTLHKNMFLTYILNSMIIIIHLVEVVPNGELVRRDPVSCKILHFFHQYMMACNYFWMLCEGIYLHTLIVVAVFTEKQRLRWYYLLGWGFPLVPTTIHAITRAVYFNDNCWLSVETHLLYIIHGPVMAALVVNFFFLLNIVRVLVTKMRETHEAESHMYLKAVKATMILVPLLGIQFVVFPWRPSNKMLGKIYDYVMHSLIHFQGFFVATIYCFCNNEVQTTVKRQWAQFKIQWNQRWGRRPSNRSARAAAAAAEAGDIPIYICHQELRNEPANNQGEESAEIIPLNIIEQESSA
T1 sequence (O60896 24-148 partner): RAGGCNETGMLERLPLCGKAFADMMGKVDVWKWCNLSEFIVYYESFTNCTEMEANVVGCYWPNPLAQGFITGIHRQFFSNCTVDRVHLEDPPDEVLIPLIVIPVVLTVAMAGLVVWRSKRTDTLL
Test: Assay (II)a functional assay, human amylin receptor (CRE luciferase, BHK cells)
Assay type: cell-based

[1] = Table 6, human functional selectivity (hCTR EC50 / hAmylin-R EC50)
[2] = Table 6a, human functional selectivity (hCTR EC50 / hAmylin-R EC50), at least 5
[3] = Table 6j, hCTR funct. EC50 / hAmylin-R funct. EC50
[4] = Table 6k, hCTR funct. EC50 / hAmylin-R funct. EC50
[5] = Table 6i, hCTR funct. EC50 / hAmylin-R funct. EC50

Compound | Ratio hCT/hAmylin funct. [1] | Ratio hCT/hAmylin funct. [2] | Ratio hCT/hAmylin funct. [3] | Ratio hCT/hAmylin funct. [4] | Ratio hCT/hAmylin funct. [5]
CC[C@H](C)[C@H](NC(=O)[C@H](C)NC(=O)CNC(=O)[C@H](Cc1ccccc1)NC(=O)[C@H](CC(N)=O)NC(=O)[C@@H]1CCCN1C(=O)[C@H](CO)NC(=O)[C@H](CO)NC(=O)[C@H](Cc1c[nH]cn1)NC(=O)[C@H](CCCNC(=N)N)NC(=O)[C@H](CC(C)C)NC(=O)[C@H](Cc1ccccc1)NC(=O)[C@H](CC(N)=O)NC(=O)[C@H](C)NC(=O)[C@H](CC(C)C)NC(=O)[C@H](CCCNC(=N)N)NC(=O)[C@H](CCC(N)=O)NC(=O)[C@@H](NC(=O)[C@H](C)NC(=O)[C@@H]1CSSC[C@H](NC(=O)[C@@H](N)CCCCNC(=O)COCCOCCNC(=O)CC[C@H](NC(=O)CCCCCCCCCCCCCCCCCCC(=O)O)C(=O)O)C(=O)N[C@@H](CC(N)=O)C(=O)N[C@@H]([C@@H](C)O)C(=O)N[C@@H](C)C(=O)N[C@@H]([C@@H](C)O)C(=O)N1)[C@@H](C)O)C(=O)N1CCC[C@H]1C(=O)N[C@@H](CO)C(=O)N1CCC[C@H]1C(=O)N[C@H](C(=O)N1CCC[C@H]1C(=O)N[C@H](C(=O)NCC(=O)N[C@@H](CO)C(=O)N[C@@H](CC(N)=O)C(=O)N[C@H](C(=O)N[C@@H](Cc1ccc(O)cc1)C(N)=O)[C@@H](C)O)C(C)C)[C@@H](C)O [Example 54] (H-K([AEEA-γGlu-C20 diacid])CNTATCATQRLANFLRHSSPNFGAIPSPTPVGSNTY-NH2; disulfide 2-7; N-terminus assumed) | 9.6 | 9.6 | 9.6 | 9.6 | 
CC[C@H](C)[C@H](NC(=O)[C@H](C)NC(=O)CNC(=O)[C@H](Cc1ccccc1)NC(=O)[C@H](CC(N)=O)NC(=O)[C@@H]1CCCN1C(=O)[C@H](CO)NC(=O)[C@H](CO)NC(=O)[C@H](Cc1c[nH]cn1)NC(=O)[C@H](CCCNC(=N)N)NC(=O)[C@H](CC(C)C)NC(=O)[C@H](Cc1ccccc1)NC(=O)[C@H](CCC(=O)O)NC(=O)[C@H](C)NC(=O)[C@H](CC(C)C)NC(=O)[C@H](CCCNC(=N)N)NC(=O)[C@H](CCC(N)=O)NC(=O)[C@@H](NC(=O)[C@H](C)NC(=O)[C@@H]1CSSC[C@H](NC(=O)[C@@H](N)CCCCNC(=O)CC[C@H](NC(=O)CC[C@H](NC(=O)CCCCCCCCCCCCCCCCCCC(=O)O)C(=O)O)C(=O)O)C(=O)N[C@@H](CC(N)=O)C(=O)N[C@@H]([C@@H](C)O)C(=O)N[C@@H](C)C(=O)N[C@@H]([C@@H](C)O)C(=O)N1)[C@@H](C)O)C(=O)N1CCC[C@H]1C(=O)N[C@@H](CO)C(=O)N[C@@H](CO)C(=O)N[C@H](C(=O)N[C@@H](CC(N)=O)C(=O)N[C@H](C(=O)NCC(=O)N[C@@H](Cc1c[nH]cn1)C(=O)N[C@@H](CC(N)=O)C(=O)N[C@H](C(=O)N[C@@H](Cc1ccc(O)cc1)C(N)=O)[C@@H](C)O)C(C)C)[C@@H](C)O [Example 87] (H-K([γGlu-γGlu-C20 diacid])CNTATCATQRLAEFLRHSSPNFGAIPSSTNVGHNTY-NH2; disulfide 2-7) | 3.8 |  | 3.8 |  | 3.8
CC[C@H](C)[C@H](NC(=O)[C@H](C)NC(=O)CNC(=O)[C@H](Cc1ccccc1)NC(=O)[C@H](CC(N)=O)NC(=O)[C@@H]1CCCN1C(=O)[C@H](CO)NC(=O)[C@H](CO)NC(=O)[C@H](Cc1c[nH]cn1)NC(=O)[C@H](CCCNC(=N)N)NC(=O)[C@H](CC(C)C)NC(=O)[C@H](Cc1ccccc1)NC(=O)[C@H](C)NC(=O)[C@H](C)NC(=O)[C@H](CC(C)C)NC(=O)[C@H](CCCNC(=N)N)NC(=O)[C@H](CCC(N)=O)NC(=O)[C@@H](NC(=O)[C@H](C)NC(=O)[C@@H]1CSSC[C@H](NC(=O)[C@@H](N)CCCCNC(=O)CC[C@H](NC(=O)CCCCCCCCCCCCCCCCCCC(=O)O)C(=O)O)C(=O)N[C@@H](CC(N)=O)C(=O)N[C@@H]([C@@H](C)O)C(=O)N[C@@H](C)C(=O)N[C@@H]([C@@H](C)O)C(=O)N1)[C@@H](C)O)C(=O)N1CCC[C@H]1C(=O)N[C@@H](CO)C(=O)N[C@@H](CO)C(=O)N[C@H](C(=O)N[C@@H](CC(N)=O)C(=O)N[C@H](C(=O)NCC(=O)N1CCC[C@H]1C(=O)N[C@@H](CC(N)=O)C(=O)N[C@H](C(=O)N[C@@H](Cc1ccc(O)cc1)C(N)=O)[C@@H](C)O)C(C)C)[C@@H](C)O [Example 94] (H-K([γGlu-C20 diacid])CNTATCATQRLAAFLRHSSPNFGAIPSSTNVGPNTY-NH2; disulfide 2-7; N-terminus assumed) | 4.5 |  |  |  | 
CC[C@H](C)[C@H](NC(=O)[C@H](C)NC(=O)CNC(=O)[C@H](Cc1ccccc1)NC(=O)[C@H](CC(N)=O)NC(=O)[C@@H]1CCCN1C(=O)[C@H](CO)NC(=O)[C@H](CO)NC(=O)[C@H](Cc1c[nH]cn1)NC(=O)[C@H](CCCNC(=N)N)NC(=O)[C@H](CC(C)C)NC(=O)[C@H](Cc1ccccc1)NC(=O)[C@H](CC(N)=O)NC(=O)[C@H](C)NC(=O)[C@H](CC(C)C)NC(=O)[C@H](CCCNC(=N)N)NC(=O)[C@H](CCC(N)=O)NC(=O)[C@@H](NC(=O)[C@H](C)NC(=O)[C@@H]1CSSC[C@H](NC(=O)[C@@H](N)CCCCNC(=O)COCCOCCNC(=O)COCCOCCNC(=O)CC[C@H](NC(=O)CCCCCCCCCCCCCCCCCCC(=O)O)C(=O)O)C(=O)N[C@@H](CC(N)=O)C(=O)N[C@@H]([C@@H](C)O)C(=O)N[C@@H](C)C(=O)N[C@@H]([C@@H](C)O)C(=O)N1)[C@@H](C)O)C(=O)N1CCC[C@H]1C(=O)N[C@@H](CO)C(=O)N[C@@H](CO)C(=O)N[C@H](C(=O)N[C@@H](CC(N)=O)C(=O)N[C@H](C(=O)NCC(=O)N[C@@H](CCCNC(=N)N)C(=O)N[C@@H](CC(N)=O)C(=O)N[C@H](C(=O)N[C@@H](Cc1ccc(O)cc1)C(N)=O)[C@@H](C)O)C(C)C)[C@@H](C)O [Example 95] (H-K([AEEA-AEEA-γGlu-C20 diacid])CNTATCATQRLANFLRHSSPNFGAIPSSTNVGRNTY-NH2; disulfide 2-7 (inferred); N-terminus and C-terminus assumed) | 33.0 | 33.0 | 33.0 | 33.0 | 
CC[C@H](C)[C@H](NC(=O)[C@H](C)NC(=O)CNC(=O)[C@H](Cc1ccccc1)NC(=O)[C@H](CC(N)=O)NC(=O)[C@@H]1CCCN1C(=O)[C@H](CO)NC(=O)[C@H](CO)NC(=O)[C@H](Cc1c[nH]cn1)NC(=O)[C@H](CCCNC(=N)N)NC(=O)[C@H](CC(C)C)NC(=O)[C@H](Cc1ccccc1)NC(=O)[C@H](C)NC(=O)[C@H](C)NC(=O)[C@H](CC(C)C)NC(=O)[C@H](CCCNC(=N)N)NC(=O)[C@H](CCC(N)=O)NC(=O)[C@@H](NC(=O)[C@H](C)NC(=O)[C@@H]1CSSC[C@H](NC(=O)[C@H](CCCNC(=N)N)NC(=O)CNC(=O)CC[C@H](NC(=O)CCCCCCCCCCCCCCCCCCC(=O)O)C(=O)O)C(=O)N[C@@H](CC(N)=O)C(=O)N[C@@H]([C@@H](C)O)C(=O)N[C@@H](C)C(=O)N[C@@H]([C@@H](C)O)C(=O)N1)[C@@H](C)O)C(=O)N1CCC[C@H]1C(=O)N[C@@H](CO)C(=O)N[C@@H](CO)C(=O)N[C@H](C(=O)N[C@@H](CC(N)=O)C(=O)N[C@H](C(=O)NCC(=O)N[C@@H](Cc1c[nH]cn1)C(=O)N[C@@H](CC(N)=O)C(=O)N[C@H](C(=O)N[C@@H](Cc1ccc(O)cc1)C(N)=O)[C@@H](C)O)C(C)C)[C@@H](C)O [Example 101] ({C20 diacid-γGlu}-GRCNTATCATQRLAAFLRHSSPNFGAIPSSTNVGHNTY-NH2; disulfide 3-8 (inferred); C-terminus assumed) | 4.9 |  |  |  | 
CC[C@H](C)[C@H](NC(=O)[C@H](C)NC(=O)CNC(=O)[C@H](Cc1ccccc1)NC(=O)[C@H](CC(N)=O)NC(=O)[C@@H]1CCCN1C(=O)[C@H](CO)NC(=O)[C@H](CO)NC(=O)[C@H](Cc1c[nH]cn1)NC(=O)[C@H](CCCNC(=N)N)NC(=O)[C@H](CC(C)C)NC(=O)[C@H](Cc1ccccc1)NC(=O)[C@H](CCC(=O)O)NC(=O)[C@H](C)NC(=O)[C@H](CC(C)C)NC(=O)[C@H](CCCNC(=N)N)NC(=O)[C@H](CCC(N)=O)NC(=O)[C@@H](NC(=O)[C@H](C)NC(=O)[C@@H]1CSSC[C@H](NC(=O)[C@@H](N)CCCCNC(=O)CC[C@H](NC(=O)CCCCCCCCCCCCCCCCCCC(=O)O)C(=O)O)C(=O)N[C@@H](CC(N)=O)C(=O)N[C@@H]([C@@H](C)O)C(=O)N[C@@H](C)C(=O)N[C@@H]([C@@H](C)O)C(=O)N1)[C@@H](C)O)C(=O)N1CCC[C@H]1C(=O)N[C@@H](CO)C(=O)N[C@@H](CO)C(=O)N[C@H](C(=O)N[C@@H](CC(N)=O)C(=O)N[C@H](C(=O)NCC(=O)N[C@@H](Cc1c[nH]cn1)C(=O)N[C@@H](CCC(=O)O)C(=O)N[C@H](C(=O)N[C@@H](Cc1ccc(O)cc1)C(N)=O)[C@@H](C)O)C(C)C)[C@@H](C)O [Example 107] (H-K([γGlu-C20 diacid])CNTATCATQRLAEFLRHSSPNFGAIPSSTNVGHETY-NH2; disulfide 2-7 (inferred); N-terminus and C-terminus assumed) | 6.3 | 6.3 | 6.3 | 6.3 | 6.3

Reference: patent US8575091B1, “Amylin analogues and pharmaceutical compositions thereof” (Novo Nordisk A/S, priority 2012, dated 2013)
